Data: US20130225611A1, “Compositions and Methods for Reducing Cancer Cell Proliferation and Modulating Importin-Beta Function” (THE REGENTS OF THE UNIVERSITY OF CALIFORNIA, priority 2011, published 2013)

Assays:
[1] = tested on: HeLa cells; assay: HeLa cell viability assay (CellTiter-Glo); assay type: cell-based; conditions: Homo sapiens, treatment over a 24-hour period
Description: For HeLa cell viability assays to obtain an IC50, 10,000 actively growing HeLa cells per well were transferred to opaque white 96 well tissue culture plates at a final volume of 100 μl per well in DMEM plus 4% fetal bovine serum and 1% penicillin/streptomycin. Cells were allowed to grow at 37° C. for 24 hours. Individual wells were then treated for 12 hours with one of the following conditions: 1% DMSO, 5, 10, 20, 30, 40, 50, 60, 75, 100 μM IPZ. Following this treatment, the media was replaced and cells were treated for another 12 hours under the same conditions. The plates were then allowed to equilibrate to room temperature for 30 min, after which 100 μl of room temperature CellTiter-Glo reagent from the Promega CellTiter-Glo Luminescent Cell Viability Assay kit was added to each well. Plates were shaken for 2 min, incubated at room temperature for 10 min, then read on a luminometer. The average background signal for the plate was subtracted from the value of each individual well, and the resulting values were normalized to the signal level of the DMSO containing well.

[2] = tested on: CRM1-mediated export of NFAT-GFP; assay: NFAT-GFP nuclear export after ionomycin washout in HEK 293 cells; assay type: cell-based, human; conditions: HEK 293, importazole 40 μM, leptomycin B 10 ng/ml, 1 hour after ionomycin washout
Description: For all import and export experiments, HEK 293 cells stably expressing NFAT-GFP were grown on glass coverslips to approximately 50% confluency prior to drug treatment. In all cases, importazole was used at 40 μM and leptomycin B was used at 10 ng/ml. For controls, DMSO was used at a concentration of 0.4%. Ionomycin was added at 1.25 μM. Importazole and leptomycin B treatments were all for 1 hour. In all experiments cells were fixed with 4% formaldehyde prior to fluorescence microscopy. DNA was visualized with 1 μg/ml Hoechst dye.

[3] = tested on: HeLa cells; assay: mitotic spindle defects in HeLa cells (tubulin and DNA staining); assay type: cell-based, human; conditions: HeLa cells treated for one hour
Description: To examine the consequences of importazole on mitosis, HeLa cells treated for one hour were fixed and stained for tubulin and chromosomes. […] Spindle positioning was not previously attributed to the Ran pathway and this phenotype may be a consequence of astral microtubule disruption by importazole.
Cells were fixed in 4% formaldehyde and 0.1% glutaraldehyde in PHEM (60 mM PIPES, 25 mM HEPES, 10 mM EGTA, 2 mM MgSO4) at 37° C. for 15 minutes followed by permeabilization with 0.1% triton X-100 for 2 minutes at room temperature. Cells were then washed and blocked (PHEM+5% FBS+0.2% saponin) and stained by standard techniques using the E7-A anti β tubulin antibody (Developmental Studies Hybridoma Bank) diluted 1:1000 and Hoechst dye.

[4] = target: T1, CRM1 (Homo sapiens, UniProt O14980); assay: fluorescent thermal shift assay (Sypro Orange), CRM1; assay type: binding; conditions: 2 μM protein, 50 μM importazole
T1 construct: made in house; host or cells: SG13 cells (E. coli)
Description: (§1) Experiments were performed using Applied Biosystems StepOnePlus™ Real-Time polymerase chain reaction (RT-PCR) System. Protein stocks were diluted in PBS and added 70% v/v to a Microamp® Fast 96-well Reaction Plate and maintained on ice. Compounds (importazole and control compound 3016) were then added at 30% v/v in 3% DMSO. Freshly prepared 100× water based-dilution of Sypro® Orange Protein Gel Stain was then added at 1% v/v to reach a final reaction volume of 20 μl. Samples were mixed by gentle pipetting. After sealing the plates with Microamp™ Optical Adhesive Film, the plate was subjected to a heating cycle composed of a 10 sec prewarming step at 25° C. and a gradient between 25° C. and 95° C. with a 0.3° C. ramp. Data was analyzed using the StepOnePlus™ Software v2.1.

[5] = target: T2, transportin (Homo sapiens, UniProt Q92973); assay: fluorescent thermal shift assay (Sypro Orange), transportin; assay type: binding; conditions: 2 μM protein, 50 μM importazole
T2 construct: made in house; host or cells: SG13 cells (E. coli)
T2 sequence (Q92973 1-898): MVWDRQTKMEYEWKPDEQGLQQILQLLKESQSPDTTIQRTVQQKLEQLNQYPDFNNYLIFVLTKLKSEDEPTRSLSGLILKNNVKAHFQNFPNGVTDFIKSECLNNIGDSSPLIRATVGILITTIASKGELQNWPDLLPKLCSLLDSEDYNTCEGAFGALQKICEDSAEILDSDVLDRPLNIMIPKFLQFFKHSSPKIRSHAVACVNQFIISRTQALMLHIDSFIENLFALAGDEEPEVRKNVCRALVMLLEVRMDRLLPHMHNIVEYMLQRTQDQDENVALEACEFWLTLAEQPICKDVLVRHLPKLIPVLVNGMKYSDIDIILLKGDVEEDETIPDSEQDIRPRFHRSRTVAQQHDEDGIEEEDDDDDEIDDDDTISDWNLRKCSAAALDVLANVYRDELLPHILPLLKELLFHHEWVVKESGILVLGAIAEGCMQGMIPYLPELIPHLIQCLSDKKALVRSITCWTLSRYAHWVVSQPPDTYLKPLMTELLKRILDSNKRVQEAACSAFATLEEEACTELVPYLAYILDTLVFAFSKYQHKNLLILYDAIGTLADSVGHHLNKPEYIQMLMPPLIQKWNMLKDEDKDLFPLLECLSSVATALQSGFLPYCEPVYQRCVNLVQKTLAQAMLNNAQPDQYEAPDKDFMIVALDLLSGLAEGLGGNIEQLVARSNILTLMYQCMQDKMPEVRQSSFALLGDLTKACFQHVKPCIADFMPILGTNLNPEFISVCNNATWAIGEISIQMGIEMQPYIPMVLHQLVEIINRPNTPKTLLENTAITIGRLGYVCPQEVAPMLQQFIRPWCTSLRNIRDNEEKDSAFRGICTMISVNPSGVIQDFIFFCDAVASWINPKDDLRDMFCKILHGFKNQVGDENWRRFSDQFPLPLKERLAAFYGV
Description: as §1

T1 sequence (O14980 whole entry, species assumed): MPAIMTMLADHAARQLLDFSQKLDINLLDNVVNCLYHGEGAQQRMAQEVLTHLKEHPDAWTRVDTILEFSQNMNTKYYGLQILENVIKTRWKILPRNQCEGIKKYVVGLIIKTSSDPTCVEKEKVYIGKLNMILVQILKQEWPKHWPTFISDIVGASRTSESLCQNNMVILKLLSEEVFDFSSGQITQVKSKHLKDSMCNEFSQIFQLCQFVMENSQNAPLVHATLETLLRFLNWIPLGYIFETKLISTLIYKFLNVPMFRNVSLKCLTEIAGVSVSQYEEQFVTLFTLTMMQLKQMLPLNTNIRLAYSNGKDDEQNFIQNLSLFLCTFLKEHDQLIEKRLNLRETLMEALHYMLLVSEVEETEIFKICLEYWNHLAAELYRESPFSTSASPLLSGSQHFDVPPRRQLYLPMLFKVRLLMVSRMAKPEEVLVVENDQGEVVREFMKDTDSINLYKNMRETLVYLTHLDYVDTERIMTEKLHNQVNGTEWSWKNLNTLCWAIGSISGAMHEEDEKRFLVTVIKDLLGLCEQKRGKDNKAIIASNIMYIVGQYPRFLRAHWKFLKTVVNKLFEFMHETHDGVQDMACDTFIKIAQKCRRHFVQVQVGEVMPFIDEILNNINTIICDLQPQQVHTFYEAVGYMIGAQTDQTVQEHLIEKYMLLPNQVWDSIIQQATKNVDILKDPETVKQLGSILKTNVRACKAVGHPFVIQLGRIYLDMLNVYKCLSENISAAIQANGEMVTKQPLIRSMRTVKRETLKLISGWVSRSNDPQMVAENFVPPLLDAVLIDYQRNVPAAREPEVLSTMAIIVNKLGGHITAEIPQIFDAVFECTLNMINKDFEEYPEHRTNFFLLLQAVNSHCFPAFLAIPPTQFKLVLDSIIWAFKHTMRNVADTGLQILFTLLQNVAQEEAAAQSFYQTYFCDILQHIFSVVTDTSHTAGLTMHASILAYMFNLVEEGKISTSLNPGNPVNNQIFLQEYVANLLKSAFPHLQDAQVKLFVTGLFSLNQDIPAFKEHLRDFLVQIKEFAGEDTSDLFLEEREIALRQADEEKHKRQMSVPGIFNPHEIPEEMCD

CC(Nc1nc(N2CCCC2)nc2ccccc12)c1ccccc1 (stereo not drawn) [importazole, (1-phenyl-ethyl)-(2-pyrrolidin-1-yl-quinazolin-4-yl)-amine]
IC50 [1]: ~22.5 µM | CRM1-mediated export of NFAT-GFP [2]: occurred efficiently | cells displaying off-center spindles [3]: more than 40% | defects in spindle assembly, chromosome alignment and spindle size ([3]; 0 to 40 μM): dose-dependent defects | effect on melting curve of CRM1 [4]: did not significantly affect the melting curves | effect on melting curve of transportin [5]: did not significantly affect the melting curves
